Results reported in patent publication US20170283440A1, “CARM1 INHIBITORS AND USES THEREOF” (Epizyme, Inc., priority 2014, published 2017).

What follows are compounds tested on asymmetric di-methyl PABP1 in RKO cells (assay: RKO methylation assay (In Cell Western for asymmetric di-methyl PABP1)). Details: Homo sapiens, 48 hours incubation, read-out: Cellular IC50.
Assay type: cell-based
Text: RKO adherent cells were purchased from ATCC (American Type Culture Collection), Manassas, Va., USA. DMEM/Glutamax medium, penicillin-streptomycin, heat inactivated fetal bovine serum, 0.05% trypsin and D-PBS were purchased from Life Technologies, Grand Island, N.Y., USA. Odyssey blocking buffer, 800CW goat anti-rabbit IgG (H+L) antibody, and Licor Odyssey infrared scanner were purchased from Licor Biosciences, Lincoln, Nebr., USA. Asymmetric di-methyl PABP1 antibody was purchased from Cell Signaling Technology, Danvers, Mass., USA. Methanol was purchased from VWR, Franklin, Mass., USA. 10% Tween 20 was purchased from KPL, Inc., Gaithersburg, Md., USA. Paraformaldehyde (PFA) was purchased from EM Sciences. DRAQ5 was purchased from Biostatus Limited, Leicestershire, UK.
RKO adherent cells were maintained in growth medium (DMEM/Glutamax medium supplemented with 10% v/v heat inactivated fetal bovine serum and 100 units/mL penicillin-streptomycin) and cultured at 37° C. under 5% CO2.
Compound (100 nL) from a 96-well source plate was added directly to 384 well cell plate. Plates were incubated at 37° C., 5% CO2 for 48 hours. After two days of incubation, plates were brought to room temperature outside of the incubator for ten minutes and blotted on paper towels to remove cell media. Cells were fixed for 20 minutes at room temperature by adding 50 ul of 8% PFA followed by aspiration of supernatant with the Biotek EL406 plate washer. Cells were then permeabilized by addition of 50 μL of ice cold 100% methanol directly to each well and incubated for 30 min at room temperature. After 30 min, plates were transferred to a Biotek EL406 plate washer and washed 2 times with 100 μL per well of wash buffer (IX PBS). Next 60 μL per well of Odyssey blocking buffer (Odyssey Buffer with 0.1% Tween 20 (v/v)) were added to each plate and incubated 1 hour at room temperature. Blocking buffer was removed and 20 μL per well of primary antibody was added (asymmetric-methyl PABP1) diluted 1:400 in Odyssey buffer with 0.1% Tween 20 (v/v)) and plates were incubated overnight (16 hours) at 4° C. Plates were washed 5 times with 100 μL per well of wash buffer. Next 20 μL per well of secondary antibody was added (1:800 800CW goat anti-rabbit IgG (H+L) antibody, 1:2000 DRAQ5 in Odyssey buffer with 0.1% Tween 20 (v/v)) and incubated for 1 hour at room temperature. The plates were washed 5 times with 100 μL per well wash buffer then 2 times with 100 μL per well of water. Plates were allowed to dry at room temperature then imaged on the Licor Odyssey machine which measures integrated intensity at 700 nm and 800 nm wavelengths. Both 700 and 800 channels were scanned.
First, the ratio for each well was determined by:
Each plate included fourteen control wells of DMSO only treatment (minimum inhibition) as well as fourteen control wells for maximum inhibition treated with 20 μM of a reference compound. The average of the ratio values for each control type was calculated and used to determine the percent […] for each test well in the plate. Reference compound was serially diluted three-fold in DMSO for a total of nine test concentrations, beginning at 20 μM.
Percent inhibition was determined and IC50 curves were generated using triplicate wells per concentration of compound.

IC50 | Compound
> 20 µM | CNCC(O)COc1cc(OC)cc(-c2cc(-c3cnc4[nH]ccc4c3)n3ncc(C(C)C)c3n2)c1 (centres unmarked) [Example 1-6]
> 20 µM | CNCC(O)COc1cc(C#N)cc(-c2cc(N3CCOCC3)n3ncc(C(C)C)c3n2)c1 (centres unmarked) [Example 26-9]
> 20 µM | CNCC(O)COc1cccc(-c2cc(NC3CCOCC3)c3c(C#N)nn(C(C)C)c3n2)c1 (centres unmarked) [Example 5-2]
10 to 20 µM | CC(C)n1ncc2c(N3CCOCC3)cc(-c3cccc(OC[C@H](O)CN)c3)nc21 [Example 1-8]
10 to 20 µM | COc1cc(OCC(O)CN)cc(-c2cc(N3CCOCC3)c3cnn(C(C)C)c3n2)c1 (centres unmarked) [Example 5-4]
> 20 µM | CNCC(O)COc1cccc(-c2cc(N(C)CCOC)n3ncc(C(C)C)c3n2)c1 (centres unmarked) [Example 12-6]
10 to 20 µM | CNCC(O)COc1cc(OC)cc(-c2cc(N3CCOCC3)n3ncc(C(=O)OC)c3n2)c1 (centres unmarked) [Example 17-8]
> 20 µM | CNC[C@@H](O)COc1cccc(-c2cc(N3CCOCC3)n3ncc(C(C)C)c3n2)c1 [Example 8-6]
> 20 µM | CNCC(O)COc1cccc(-c2cc(C(=O)NCc3c(C)cc(C)[nH]c3=O)c3cnn(C(C)C)c3n2)c1 (centres unmarked) [Example 1-3]

The next lines start with the compound.

Compound | IC50
CC(C)n1ncc2c(NS(=O)(=O)N(C)C)cc(-c3cccc(OCC(O)CN)c3)nc21 (centres unmarked) [Example 24-9] | > 20 µM
CNCC(O)COc1cccc(-c2cc(N(C)C3CCOCC3)c3c(C)nn(C(C)C)c3n2)c1 (centres unmarked) [Example 6-2] | 10 to 20 µM
CNCC(O)COc1cccc(-c2cc(NC3CCOCC3)c3c(C)nn(C(C)C)c3n2)c1 (centres unmarked) [Example 4-2] | 10 to 20 µM
CNCC(O)COc1cccc(-c2nc(N3CC4CCC(C3)O4)c3cnn(C4CC4)c3n2)c1 (centres unmarked) [Example 7-9] | 10 to 20 µM
CNCC(O)COc1cccc(-c2cc(N3CCOC3=O)n3ncc(C(C)C)c3n2)c1 (centres unmarked) [Example 20-9] | > 20 µM
CNCC(O)COc1cc(Cl)cc(-c2cc(NC3CCOCC3)c3c(C)nn(C(C)C)c3n2)c1 (centres unmarked) [Example 22-4] | 5 to 10 µM
CC(C)c1cnn2c(N(C)C3CCOCC3)cc(-c3cccc(OCC(O)CN)c3)nc12 (centres unmarked) [Example 11-8] | > 20 µM

What follows are compounds tested against T1, Human CARM1 (PRMT4) (Homo sapiens, UniProt Q86X55) (assay: CARM1 enzyme assay on peptide substrate (3H-SAM Flashplate)). Details: CARM1 0.25 nM, 3H-SAM 30 nM, peptide 250 nM; read-out: Biochem IC50.
T1 construct: Flag-CARM1-His was eluted with 200 ug/ml FLAG peptide in buffer A; made in house; host or cells: HEK 293F cells infected with recombinant baculovirus (pFastBacMam)
Assay type: biochemical
Text: S-adenosylmethionine (SAM), S-adenosylhomocysteine (SAH), bicine, Tween20, dimethylsulfoxide (DMSO), bovine skin gelatin (BSG), sodium butyrate and Tris(2-carboxyethyl)phosphine hydrochloride solution (TCEP) were purchased from Sigma-Aldrich at the highest level of purity possible. ^3H-SAM was purchase from American Radiolabeled Chemicals with a specific activity of 80 Ci/mmol. 384-well streptavidin Flashplates were purchased from PerkinElmer.
Peptide representative of human histone H3 residues 16-30 was synthesized with an N-terminal linker-affinity tag motif and a C-terminal amide cap by 21st Century Biochemicals. The peptide was purified by high-performance liquid chromatography (HPLC) to greater than 95% purity and confirmed by liquid chromatography mass spectrometry (LC-MS). The sequence was Biot-Ahx-[…]-amide and contained a monomethylated arginine at position 26 (SEQ ID NO.:1).
Human CARM1 (PRMT4) (NM_199141.1) transcript clone was amplified from an HEK 293 cDNA library, incorporating a flanking 5′ sequence encoding a FLAG tag ([…]) (SEQ ID NO.:2) fused directly to Ala 2 of CARM1 and 3′ sequence encoding a hexa His sequence ([…]) (SEQ ID NO.:3) fused directly to Ser 608. The gene sequence encoding isoform1 containing a deletion of amino acids 539-561 was amplified subsequently and subcloned into pFastBacMam (Viva Biotech).
Recombinant baculovirus were generated according to Bac-to-Bac kit instructions (Life Technologies). Protein over-expression was accomplished by infecting exponentially growing HEK 293F cell culture at 1.3×10^6 cell/ml with virus (MOI=10) in the presence of 8 mM sodium butyrate. Infections were carried out at 37° C. for 48 hours, harvested by centrifugation, and stored at −80° C. for purification.
Column was washed with 500 mM NaCl in buffer A and Flag-CARM1-His was eluted with 200 ug/ml FLAG peptide in buffer A. Pooled fractions were dialyzed in 20 mM Tris, 150 mM NaCl, 5% glycerol and 1 mM DTT, pH 7.8. The purity of recovered protein was 94.
The assays were all performed in a buffer consisting of 20 mM Bicine (pH=7.6), 1 mM TCEP, 0.005% BSG, and 0.002% Tween 20, prepared on the day of use. Compounds in 100% DMSO (1 ul) were spotted into a polypropylene 384-well V-bottom plates (Greiner) using a Platemate Plus outfitted with a 384-channel head (Thermo Scientific). DMSO (1 ul) was added to Columns 11, 12, 23, 24, rows A-H for the maximum signal control and 1 ul of SAH, a known product and inhibitor of CARM1, was added to columns 11, 12, 23, 24, rows I—P for the minimum signal control. A cocktail (40 ul) containing the CARM1 enzyme was added by Multidrop Combi (Thermo-Fisher). The compounds were allowed to incubate with CARM1 for 30 min at room temperature, then a cocktail (10 ul) containing ^3H-SAM and peptide was added to initiate the reaction (final volume=51 ul). The final concentrations of the components were as follows: CARM1 was 0.25 nM, ^3H-SAM was 30 nM, peptide was 250 nM, SAH in the minimum signal control wells was 1 mM, and the DMSO concentration was 2%. The assays were stopped by the addition of non-radiolabeled SAM (10 ul) to a final concentration of 300 uM, which dilutes the ^3H-SAM to a level where its incorporation into the peptide substrate is no longer detectable. 50 ul of the reaction in the 384-well polypropylene plate was then transferred to a 384-well Flashplate and the biotinylated peptides were allowed to bind to the streptavidin surface for at least 1 hour before being washed once with 0.1% Tween20 in a Biotek ELx405 plate washer. The plates were then read in a PerkinElmer TopCount plate reader to measure the quantity of ^3H-labeled peptide bound to the Flashplate surface, measured as disintegrations per minute (dpm) or alternatively, referred to as counts per minute (cpm).
where dpm=disintegrations per minute, cmpd=signal in assay well, and min and max are the respective minimum and maximum signal controls. […]

T1 sequence (Q86X55 other isoform, or with tags, fused parts or gaps): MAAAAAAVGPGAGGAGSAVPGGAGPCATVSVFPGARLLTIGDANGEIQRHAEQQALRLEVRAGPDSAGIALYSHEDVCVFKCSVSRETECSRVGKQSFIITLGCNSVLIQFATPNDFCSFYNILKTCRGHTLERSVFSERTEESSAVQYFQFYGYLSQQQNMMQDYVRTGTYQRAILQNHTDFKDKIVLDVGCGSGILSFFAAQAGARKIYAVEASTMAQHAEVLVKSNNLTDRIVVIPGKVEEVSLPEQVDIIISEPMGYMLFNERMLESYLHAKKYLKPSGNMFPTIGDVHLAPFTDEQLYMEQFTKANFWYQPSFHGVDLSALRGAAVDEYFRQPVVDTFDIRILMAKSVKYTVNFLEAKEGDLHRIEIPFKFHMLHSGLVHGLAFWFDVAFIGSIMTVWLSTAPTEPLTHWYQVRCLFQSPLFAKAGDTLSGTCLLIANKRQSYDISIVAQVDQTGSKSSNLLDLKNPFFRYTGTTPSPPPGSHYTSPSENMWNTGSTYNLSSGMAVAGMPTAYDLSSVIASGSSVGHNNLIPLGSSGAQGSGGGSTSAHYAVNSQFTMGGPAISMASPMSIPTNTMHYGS

IC50 | Compound
< 0.1 µM | CNCC(O)COc1cc(OC)cc(-c2cc(-c3cnc4[nH]ccc4c3)n3ncc(C(C)C)c3n2)c1 (centres unmarked) [Example 1-6]
0.1 to 1 µM | CNCC(O)COc1cc(C#N)cc(-c2cc(N3CCOCC3)n3ncc(C(C)C)c3n2)c1 (centres unmarked) [Example 26-9]
0.1 to 1 µM | CNCC(O)COc1cccc(-c2cc(NC3CCOCC3)c3c(C#N)nn(C(C)C)c3n2)c1 (centres unmarked) [Example 5-2]
< 0.1 µM | CC(C)n1ncc2c(N3CCOCC3)cc(-c3cccc(OC[C@H](O)CN)c3)nc21 [Example 1-8]
< 0.1 µM | COc1cc(OCC(O)CN)cc(-c2cc(N3CCOCC3)c3cnn(C(C)C)c3n2)c1 (centres unmarked) [Example 5-4]
< 0.1 µM | CNCC(O)COc1cccc(-c2cc(N(C)CCOC)n3ncc(C(C)C)c3n2)c1 (centres unmarked) [Example 12-6]
< 0.1 µM | CNCC(O)COc1cc(OC)cc(-c2cc(N3CCOCC3)n3ncc(C(=O)OC)c3n2)c1 (centres unmarked) [Example 17-8]
< 0.1 µM | CNC[C@@H](O)COc1cccc(-c2cc(N3CCOCC3)n3ncc(C(C)C)c3n2)c1 [Example 8-6]
< 0.1 µM | CNCC(O)COc1cccc(-c2cc(C(=O)NCc3c(C)cc(C)[nH]c3=O)c3cnn(C(C)C)c3n2)c1 (centres unmarked) [Example 1-3]

The next lines start with the compound.

Compound | IC50
CC(C)n1ncc2c(NS(=O)(=O)N(C)C)cc(-c3cccc(OCC(O)CN)c3)nc21 (centres unmarked) [Example 24-9] | 0.1 to 1 µM
CNCC(O)COc1cccc(-c2cc(N(C)C3CCOCC3)c3c(C)nn(C(C)C)c3n2)c1 (centres unmarked) [Example 6-2] | < 0.1 µM
CNCC(O)COc1cccc(-c2cc(NC3CCOCC3)c3c(C)nn(C(C)C)c3n2)c1 (centres unmarked) [Example 4-2] | < 0.1 µM
CNCC(O)COc1cccc(-c2nc(N3CC4CCC(C3)O4)c3cnn(C4CC4)c3n2)c1 (centres unmarked) [Example 7-9] | < 0.1 µM
CNCC(O)COc1cccc(-c2cc(N3CCOC3=O)n3ncc(C(C)C)c3n2)c1 (centres unmarked) [Example 20-9] | 0.1 to 1 µM
CNCC(O)COc1cc(Cl)cc(-c2cc(NC3CCOCC3)c3c(C)nn(C(C)C)c3n2)c1 (centres unmarked) [Example 22-4] | < 0.1 µM
CC(C)c1cnn2c(N(C)C3CCOCC3)cc(-c3cccc(OCC(O)CN)c3)nc12 (centres unmarked) [Example 11-8] | 0.1 to 1 µM
